Reference: ChEMBL document CHEMBL5465560, “Selectivity Literature for EUbOPEN Chemogenomic Library” (2024)
Values belong to the compound of their own block, whether it stands above or below them.

Assays:
[1] = tested on: Tyrosine-protein kinase ABL1 (Homo sapiens), P00519 [F317L]; assay: Selectivity interaction (KinomeScan (DiscoverX)) EUB0000607a ABL1; conditions: at 10 µM
[2] = target: Serine/threonine-protein kinase B-raf (Homo sapiens) (UniProt P15056); assay: Selectivity interaction (Kinase panel (DSF assay)) EUB0001558a BRAF
[3] = target: T1, Activin receptor type-1B (Homo sapiens) (UniProt P36896); conditions: at 10 µM
T1 sequence (whole entry): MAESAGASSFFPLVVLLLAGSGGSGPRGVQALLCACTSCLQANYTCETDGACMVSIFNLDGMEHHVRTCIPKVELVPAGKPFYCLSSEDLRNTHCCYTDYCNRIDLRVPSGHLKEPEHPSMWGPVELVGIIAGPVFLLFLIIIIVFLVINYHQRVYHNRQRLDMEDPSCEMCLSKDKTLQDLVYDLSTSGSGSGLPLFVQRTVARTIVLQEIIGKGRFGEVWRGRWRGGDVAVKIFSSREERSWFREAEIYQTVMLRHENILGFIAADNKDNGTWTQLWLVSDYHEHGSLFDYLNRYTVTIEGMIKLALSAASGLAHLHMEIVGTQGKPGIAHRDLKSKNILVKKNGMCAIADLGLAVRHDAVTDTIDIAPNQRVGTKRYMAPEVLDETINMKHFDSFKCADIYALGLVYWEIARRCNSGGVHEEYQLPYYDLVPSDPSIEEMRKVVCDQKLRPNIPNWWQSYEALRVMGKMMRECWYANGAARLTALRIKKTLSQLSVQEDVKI

[4] = target: T2, Serine/threonine-protein kinase tousled-like 1 (Homo sapiens) (UniProt Q9UKI8); assay: Selectivity interaction (ActivX KiNativ screen (kinase selectivity in THP-1 cell lysates)) EUB0000639a TLK1; type: subcellular; conditions: lysate
T2 sequence (whole entry): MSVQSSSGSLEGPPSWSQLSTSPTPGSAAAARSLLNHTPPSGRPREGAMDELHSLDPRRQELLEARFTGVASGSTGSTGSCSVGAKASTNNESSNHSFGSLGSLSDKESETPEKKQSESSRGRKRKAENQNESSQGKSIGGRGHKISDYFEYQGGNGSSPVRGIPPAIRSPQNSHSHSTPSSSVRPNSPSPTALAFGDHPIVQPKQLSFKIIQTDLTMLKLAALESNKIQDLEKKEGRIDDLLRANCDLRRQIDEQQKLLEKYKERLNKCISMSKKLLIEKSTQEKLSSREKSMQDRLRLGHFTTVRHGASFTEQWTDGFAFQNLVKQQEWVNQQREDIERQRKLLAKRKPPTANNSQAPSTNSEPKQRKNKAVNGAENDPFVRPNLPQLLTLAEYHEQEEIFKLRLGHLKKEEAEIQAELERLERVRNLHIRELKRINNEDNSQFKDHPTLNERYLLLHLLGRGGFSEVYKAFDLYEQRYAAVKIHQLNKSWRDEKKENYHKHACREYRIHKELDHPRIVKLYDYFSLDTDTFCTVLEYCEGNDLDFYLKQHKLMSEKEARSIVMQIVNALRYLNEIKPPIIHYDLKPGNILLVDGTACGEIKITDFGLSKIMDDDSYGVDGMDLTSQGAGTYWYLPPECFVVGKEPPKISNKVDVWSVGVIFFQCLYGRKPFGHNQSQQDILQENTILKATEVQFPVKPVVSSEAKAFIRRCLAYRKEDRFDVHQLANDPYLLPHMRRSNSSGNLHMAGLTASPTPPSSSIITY

[5] = target: Non-receptor tyrosine-protein kinase TYK2 (Homo sapiens, UniProt P29597); assay: Selectivity interaction (KinomeScan (DiscoverX)) EUB0001868a TYK2; conditions: at 1 µM
[6] = target: T3, Mitogen-activated protein kinase kinase kinase 19 (Homo sapiens) (UniProt Q56UN5); assay: Selectivity interaction (KinomeScan (DiscoverX)) EUB0000695a MAP3K19; conditions: at 100 nM
T3 sequence (whole entry): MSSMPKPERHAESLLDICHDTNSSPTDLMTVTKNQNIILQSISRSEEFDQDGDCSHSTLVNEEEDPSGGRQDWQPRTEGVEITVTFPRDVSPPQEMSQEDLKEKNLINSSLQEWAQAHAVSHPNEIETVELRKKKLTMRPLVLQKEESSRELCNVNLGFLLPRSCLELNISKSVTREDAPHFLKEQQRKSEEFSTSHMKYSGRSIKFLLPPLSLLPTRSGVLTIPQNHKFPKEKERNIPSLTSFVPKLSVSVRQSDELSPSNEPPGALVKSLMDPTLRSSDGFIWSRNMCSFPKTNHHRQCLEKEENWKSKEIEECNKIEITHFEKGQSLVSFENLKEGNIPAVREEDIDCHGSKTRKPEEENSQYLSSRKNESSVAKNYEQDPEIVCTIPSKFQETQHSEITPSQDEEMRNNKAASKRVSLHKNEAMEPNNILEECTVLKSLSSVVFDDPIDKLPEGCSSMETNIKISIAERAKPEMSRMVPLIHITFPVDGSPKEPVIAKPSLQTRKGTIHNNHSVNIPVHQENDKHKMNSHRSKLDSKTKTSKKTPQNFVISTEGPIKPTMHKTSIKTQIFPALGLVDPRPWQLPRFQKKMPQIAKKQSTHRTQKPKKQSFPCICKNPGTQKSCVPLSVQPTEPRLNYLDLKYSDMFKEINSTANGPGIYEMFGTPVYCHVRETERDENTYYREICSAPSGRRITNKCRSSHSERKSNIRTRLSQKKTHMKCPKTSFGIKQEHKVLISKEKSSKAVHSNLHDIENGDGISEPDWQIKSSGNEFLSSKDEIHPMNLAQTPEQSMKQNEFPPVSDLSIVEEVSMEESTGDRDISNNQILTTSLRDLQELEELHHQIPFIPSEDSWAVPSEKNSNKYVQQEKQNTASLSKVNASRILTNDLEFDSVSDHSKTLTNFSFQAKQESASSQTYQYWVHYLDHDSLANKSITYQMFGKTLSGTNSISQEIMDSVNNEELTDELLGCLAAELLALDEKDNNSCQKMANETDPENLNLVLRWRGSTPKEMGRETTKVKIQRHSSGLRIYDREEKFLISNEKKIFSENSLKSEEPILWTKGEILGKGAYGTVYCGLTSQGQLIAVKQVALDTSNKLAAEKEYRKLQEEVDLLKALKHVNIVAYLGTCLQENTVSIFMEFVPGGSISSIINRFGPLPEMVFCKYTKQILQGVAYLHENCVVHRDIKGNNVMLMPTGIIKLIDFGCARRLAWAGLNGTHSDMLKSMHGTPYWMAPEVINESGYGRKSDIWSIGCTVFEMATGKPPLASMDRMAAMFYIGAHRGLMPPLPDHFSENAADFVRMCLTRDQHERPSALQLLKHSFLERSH

Chain of Non-receptor tyrosine-protein kinase TYK2 (P29597 whole entry): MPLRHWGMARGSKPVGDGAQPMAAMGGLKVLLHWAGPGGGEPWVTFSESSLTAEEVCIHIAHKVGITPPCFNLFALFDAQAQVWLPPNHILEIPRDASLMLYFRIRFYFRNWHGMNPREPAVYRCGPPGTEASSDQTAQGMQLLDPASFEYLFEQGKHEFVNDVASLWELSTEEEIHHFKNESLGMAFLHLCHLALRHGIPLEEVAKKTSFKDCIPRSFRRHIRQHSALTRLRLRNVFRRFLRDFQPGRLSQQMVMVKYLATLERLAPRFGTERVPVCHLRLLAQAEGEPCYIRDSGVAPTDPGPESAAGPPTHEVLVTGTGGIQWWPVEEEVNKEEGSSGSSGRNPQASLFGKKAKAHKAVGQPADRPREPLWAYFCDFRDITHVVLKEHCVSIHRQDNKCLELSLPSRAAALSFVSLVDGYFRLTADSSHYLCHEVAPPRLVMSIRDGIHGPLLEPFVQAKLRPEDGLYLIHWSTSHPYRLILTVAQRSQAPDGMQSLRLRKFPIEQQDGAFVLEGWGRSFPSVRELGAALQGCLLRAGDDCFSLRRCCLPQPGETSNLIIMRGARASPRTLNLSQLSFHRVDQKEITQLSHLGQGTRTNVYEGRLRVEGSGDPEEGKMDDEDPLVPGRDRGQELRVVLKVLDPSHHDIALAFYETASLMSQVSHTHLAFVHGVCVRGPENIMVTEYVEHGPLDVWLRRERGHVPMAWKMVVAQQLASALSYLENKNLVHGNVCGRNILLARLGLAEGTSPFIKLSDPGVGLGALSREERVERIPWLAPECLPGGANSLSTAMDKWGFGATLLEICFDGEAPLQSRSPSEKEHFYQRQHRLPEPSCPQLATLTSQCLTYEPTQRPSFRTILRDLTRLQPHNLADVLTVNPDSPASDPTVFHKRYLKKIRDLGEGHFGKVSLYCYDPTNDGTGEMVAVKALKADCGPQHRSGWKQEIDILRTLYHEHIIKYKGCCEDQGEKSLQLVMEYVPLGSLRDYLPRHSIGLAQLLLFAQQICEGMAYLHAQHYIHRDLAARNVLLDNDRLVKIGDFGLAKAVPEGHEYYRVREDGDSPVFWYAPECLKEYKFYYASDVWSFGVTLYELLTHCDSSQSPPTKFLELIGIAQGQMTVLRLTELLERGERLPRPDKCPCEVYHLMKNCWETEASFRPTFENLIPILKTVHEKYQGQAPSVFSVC
Chain of Serine/threonine-protein kinase B-raf (Homo sapiens) (P15056 whole entry): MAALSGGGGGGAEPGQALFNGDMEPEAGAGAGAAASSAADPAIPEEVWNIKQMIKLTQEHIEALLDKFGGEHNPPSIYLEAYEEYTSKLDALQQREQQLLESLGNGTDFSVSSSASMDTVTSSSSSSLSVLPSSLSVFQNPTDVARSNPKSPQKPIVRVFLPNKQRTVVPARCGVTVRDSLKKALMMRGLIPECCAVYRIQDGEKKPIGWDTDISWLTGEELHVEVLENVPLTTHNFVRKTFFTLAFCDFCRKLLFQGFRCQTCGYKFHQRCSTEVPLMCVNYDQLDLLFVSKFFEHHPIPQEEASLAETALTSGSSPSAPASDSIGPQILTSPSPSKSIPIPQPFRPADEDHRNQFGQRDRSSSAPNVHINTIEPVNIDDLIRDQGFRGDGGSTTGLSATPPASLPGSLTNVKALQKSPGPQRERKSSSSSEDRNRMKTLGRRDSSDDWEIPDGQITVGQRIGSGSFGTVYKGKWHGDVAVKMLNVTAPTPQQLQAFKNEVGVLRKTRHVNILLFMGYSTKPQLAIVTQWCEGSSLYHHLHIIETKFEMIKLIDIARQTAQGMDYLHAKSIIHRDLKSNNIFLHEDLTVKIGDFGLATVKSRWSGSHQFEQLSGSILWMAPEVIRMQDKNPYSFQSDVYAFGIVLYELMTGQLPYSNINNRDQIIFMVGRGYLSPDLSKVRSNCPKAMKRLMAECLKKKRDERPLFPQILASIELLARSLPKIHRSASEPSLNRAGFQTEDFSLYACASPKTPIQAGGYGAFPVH
Chain of Tyrosine-protein kinase ABL1 (Homo sapiens), P00519 [F317L] (P00519 whole entry F317L): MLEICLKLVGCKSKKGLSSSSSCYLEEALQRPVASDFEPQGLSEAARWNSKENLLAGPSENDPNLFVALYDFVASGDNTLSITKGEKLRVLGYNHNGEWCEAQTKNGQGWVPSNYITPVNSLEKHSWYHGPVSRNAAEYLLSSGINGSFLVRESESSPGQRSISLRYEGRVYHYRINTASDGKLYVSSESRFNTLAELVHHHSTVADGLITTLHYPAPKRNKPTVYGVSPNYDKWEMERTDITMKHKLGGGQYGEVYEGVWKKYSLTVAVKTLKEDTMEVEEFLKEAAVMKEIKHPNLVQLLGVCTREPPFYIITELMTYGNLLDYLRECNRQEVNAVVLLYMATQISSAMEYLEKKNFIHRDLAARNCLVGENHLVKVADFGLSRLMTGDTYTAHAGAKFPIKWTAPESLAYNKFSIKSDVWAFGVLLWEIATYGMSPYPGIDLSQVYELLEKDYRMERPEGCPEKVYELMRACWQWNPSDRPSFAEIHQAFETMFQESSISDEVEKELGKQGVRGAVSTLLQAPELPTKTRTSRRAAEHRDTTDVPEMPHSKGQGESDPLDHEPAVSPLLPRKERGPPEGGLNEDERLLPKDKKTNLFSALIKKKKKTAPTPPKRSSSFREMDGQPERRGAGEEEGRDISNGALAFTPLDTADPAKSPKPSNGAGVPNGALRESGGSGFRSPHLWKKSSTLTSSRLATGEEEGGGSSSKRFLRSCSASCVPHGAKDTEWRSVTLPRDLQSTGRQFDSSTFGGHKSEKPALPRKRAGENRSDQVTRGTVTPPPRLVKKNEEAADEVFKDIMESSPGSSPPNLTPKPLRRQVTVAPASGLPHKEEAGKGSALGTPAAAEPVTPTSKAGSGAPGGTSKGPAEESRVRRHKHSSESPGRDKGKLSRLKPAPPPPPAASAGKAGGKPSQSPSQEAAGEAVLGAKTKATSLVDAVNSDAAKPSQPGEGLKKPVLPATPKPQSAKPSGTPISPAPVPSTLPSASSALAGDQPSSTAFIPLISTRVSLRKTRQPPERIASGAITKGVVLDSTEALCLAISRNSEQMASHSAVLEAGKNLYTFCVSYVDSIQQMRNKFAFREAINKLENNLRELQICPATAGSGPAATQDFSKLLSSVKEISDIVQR

SMILES: CNC(=O)Nc1ccc(-c2nc(N3CC4CCC(C3)O4)c3cnn(C4CCC5(CC4)OCCO5)c3n2)cc1
% of control [1]: 96%

SMILES: CC(C)(O)[C@H](F)CN1Cc2cc(NC(=O)c3cnn4cccnc34)c(N3CCOCC3)cc2C1=O
dTM [2]: 0 K

SMILES: Cc1cc([C@@H](C)Nc2ccccc2C(=O)O)c2nc(N3CCOCC3)cc(=O)n2c1 [AZD-6482]
% of control [3]: 93%

% of inhibition ([4]; at 0.01 µM): 10.2%
% of inhibition ([4]; at 0.04 µM): 21.8%
% of inhibition ([4]; at 0.2 µM): 4.8%
% of inhibition ([4]; at 1 µM): 54%
% of inhibition ([4]; at 5 µM): 62.2%
SMILES: CC[C@@H]1[C@H](F)C(=O)N[C@@H]1COc1nccc2cc(C(N)=O)c(OC)cc12 [ZIMLOVISERTIB]

% of control [5]: 47%
SMILES: Cc1cc(-c2ccnc(Nc3cnn(C)c3)n2)ccc1CNC(=O)N1CC(OC(C)C)C1

SMILES: Cc1cc(F)c(C(=O)Nc2cccc(-c3nncn3C(C)C)n2)cc1-n1cnc(C2CC2)c1
% of control [6]: 57%
